Measured values taken from patent US10538738B2, “Megakaryocytic particles and microparticles for cell therapy and fate modification of stem and progenitor cells” (priority 2014, dated 2020).
Residues, ends and D or L forms follow the SMILES beside them. *: point of attachment. Cbz = O=C(OCc1ccccc1)*; CH2F = FC*

Legend:
Mks [1] = assay: Shear-flow PPT and PLP generation from Mks treated with caspase inhibitors; type: cell-based, human; details: 10 μM inhibitor, shear flow 2.5 dyn/cm^2 for 0.5 hour
Description: (§1) Rectangular flow slides (μ-Slide 1^0.6 Luer, ibidi USA) were coated with 50 μg/mL vWF, and ca. 300,000 cultured Mks were seeded into each slide. Mks on slides were cultured overnight (21 hours) before being exposed to shear flow. Medium (IMDM supplemented with 10% BIT9500, 50 ng/mL TPO, 50 ng/mL rhSCF, 0.5 μg/mL hLDL and 6.25 mM nicotinamide) was perfused over Mks on slides by two syringe pumps (Dual NE-4000 pump; New Era Pump Systems) to achieve the desirable shear-stress level. For BrdU incorporation assays, the medium was supplemented with 10 μM BrdU (BD). During shear flow, some Mks were detached from the slide surface and released into the circulating medium. These are considered as non-adherent Mks. Adherent Mks were harvested for analysis using non-enzymatic cell dissociation buffer (Sigma-Aldrich). In some experiments, adherent Mks were fixed with 2% paraformaldehyde directly on slides and processed for immunofluorescence analysis. In some experiments, Mks were treated with caspase inhibitors, 10 μM z-VAD.fmk (Bachem) or 10 μM z-DEVD.fmk (Bachem) starting on d9. Inhibitor-treated Mks were seeded into flow slides at d9 or d11, were exposed to shear flow (2.5 dyn/cm^2 for 0.5 hour) in medium supplemented with the same inhibitor, and were harvested for PPT, PLP and CD41^+ microparticle counting.
Large cells were excluded from PLP preparations by centrifugation at 150× g for 10 minutes. PLPs were then pelleted by centrifugation at 1000× g for 10 minutes from the PLP-enriched supernatant. After one wash, PLPs were resuspended in Tyrode's buffer and used in platelet-stimulation assays. The number of PLPs and PPTs per slide was measured using a Multisizer™ 3 Coulter Counter (Beckman Coulter).
It has been shown that activation of caspase-3 and 9 is required for PPT formation. Here we wanted to investigate if shear stress affects caspase-3 activation in Mks. We chose caspase-3 as a marker of late apoptosis to complement our Annexin V studies above, which pertain to early apoptotic events. First, we confirmed that caspase-3 in indeed activated during in vitro Mk maturation with our culture protocol. […] We also observed a correlation between the activation level of caspase-3 in Mks (represented as the ratio of MFI of active caspase-3 over isotype control) and PPT formation (FIG. 4C), which is consistent with previous studies discussed above. […] Exposure of Mks for 2 hours to 1 dyn/cm^2 enhanced caspase-3 activation both at d10 and d12 (FIG. 4D) by 1.7 to 5.6 fold depending on the donor and day. Since, as discussed, caspase-3 activation is necessary for PPT formation, one mechanism by which shear stress may promote PPT formation (see below) is by enhancing caspase-3 activation. To investigate this hypothesis, Mks were treated with 10 μM z-VAD.fmk (pan-caspase inhibitor) or z-DEVD.fmk (caspase-3 inhibitor) and were then exposed to shear flow. After flow application, PLPs (d=1-3 μm) and PPTs (d=3-10 μm) were harvested and counted. The effect of shear stress on particle generation was assessed using the ratio of PLP or PPT number from one slide of Mks under flow conditions over that under static conditions. […] However, at d12, both of z-VAD fmk and z-DEVD.fmk decreased both the PPT and PLP ratios (FIGS. 4E and 4F). […] At d12 when Mks produced more PPTs and stared to form a significant number of PLPs, the effect of shear on PPT and PLP generation was attenuated by caspase inhibitors.

Mks [2] = assay: Shear-enhanced MkMP generation from Mks treated with caspase inhibitors; type: cell-based, human; details: d10 and d12 Mks, 10 μM inhibitor, shear flow 2.5 dyn/cm^2 for 0.5 hour
Description: as §1, with “Inhibitor-treated Mks were seeded into flow slides at d9 or d11, were exposed to shear flow (2.5 dyn/cm^2 for 0.5 hour) in medium supplemented with the same inhibitor, and were harvested for PPT, PLP and CD41^+ microparticle counting.” left out
For both static cultures and cultures exposed to shear flow, Mk cells were removed from the culture medium by centrifugation (150× g for 10 minutes). […] Concentrations of MkMPs (and of PMPs and Mks) were measured by flow cytometry using 1.34 μm microbeads (Sphero Tech) as standard. […]

| SMILES | PLP ratio (PLP number under flow conditions over static conditions) (Mks [1]; d10 Mks) | PPT ratio (PPT number under flow conditions over static conditions) (Mks [1]; d10 Mks) | PLP ratio (PLP number under flow conditions over static conditions) (Mks [1]; d12 Mks) | PPT ratio (PPT number under flow conditions over static conditions) (Mks [1]; d12 Mks) | Ratio of number of MkMPs under shear flow over static conditions (Mks [2]) |
| --- | --- | --- | --- | --- | --- |
| COC(=O)CC[C@H](NC(=O)[C@H](CC(=O)OC)NC(=O)OCc1ccccc1)C(=O)N[C@H](C(=O)N[C@@H](CC(=O)OC)C(=O)CF)C(C)C [z-DEVD.fmk] | decreased only the PPT ratio | decreased | decreased | decreased | attenuated the effect of shear stress |
| COC(=O)C[C@H](NC(=O)[C@H](C)NC(=O)[C@@H](NC(=O)OCc1ccccc1)C(C)C)C(=O)CF [z-VAD.fmk] (Cbz-Val-Ala-Asp(OMe)-CH2F) | no statistically significant effect | no statistically significant effect | decreased | decreased | only treatment with caspase-3 inhibitor (z-DEVD fmk) attenuated the effect of shear stress |
